Measurements taken from ChEMBL document CHEMBL5543142, “Discovery of YFJ-36: Design, Synthesis, and Antibacterial Activities of Catechol-Conjugated β-Lactams against Gram-Negative Bacteria” (J Med Chem, 2024).
In brackets after ≈: the same amount, converted by molar mass.

Experiments:
Escherichia coli [1] = assay: Antibacterial activity against ESBL-producing multidrug-resistant Escherichia coli clinical isolate 14-1 assessed as inhibition of bacterial growth incubated for 18 to 20 hrs by two fold serial dilution assay; assay type: functional; conditions: time 18-20 hrs
Escherichia coli [2] = assay: Antibacterial activity against ESBL-producing multidrug-resistant Escherichia coli clinical isolate 14-2 assessed as inhibition of bacterial growth incubated for 18 to 20 hrs by two fold serial dilution assay; assay type: functional; conditions: time 18-20 hrs
Escherichia coli [3] = assay: Antibacterial activity against ESBL-producing multidrug-resistant Escherichia coli clinical isolate 14-4 assessed as inhibition of bacterial growth incubated for 18 to 20 hrs by two fold serial dilution assay; assay type: functional; conditions: time 18-20 hrs
Klebsiella pneumoniae [4] = assay: Antibacterial activity against KPC-2 producing multidrug-resistant Klebsiella pneumoniae clinical isolate 15-1 assessed as inhibition of bacterial growth incubated for 18 to 20 hrs by two fold serial dilution assay; assay type: functional; conditions: time 18-20 hrs
Klebsiella pneumoniae [5] = assay: Antibacterial activity against KPC-2 producing multidrug-resistant Klebsiella pneumoniae clinical isolate 15-2 assessed as inhibition of bacterial growth incubated for 18 to 20 hrs by two fold serial dilution assay; assay type: functional; conditions: time 18-20 hrs
Klebsiella pneumoniae [6] = assay: Antibacterial activity against KPC-2 producing multidrug-resistant Klebsiella pneumoniae clinical isolate 15-5 assessed as inhibition of bacterial growth incubated for 18 to 20 hrs by two fold serial dilution assay; assay type: functional; conditions: time 18-20 hrs
Escherichia coli [7] = assay: Antibacterial activity against Escherichia coli ATCC35218 assessed as inhibition of bacterial growth incubated for 18 to 20 hrs by two fold serial dilution assay; assay type: functional; conditions: time 18-20 hrs
Pseudomonas aeruginosa [8] = assay: Antibacterial activity against IMP-4 producing multidrug-resistant Pseudomonas aeruginosa clinical isolate 17-13 assessed as inhibition of bacterial growth incubated for 18 to 20 hrs by two fold serial dilution assay; assay type: functional; conditions: time 18-20 hrs
Pseudomonas aeruginosa [9] = assay: Antibacterial activity against IMP-4 producing multidrug-resistant Pseudomonas aeruginosa clinical isolate 17-1 assessed as inhibition of bacterial growth incubated for 18 to 20 hrs by two fold serial dilution assay; assay type: functional; conditions: time 18-20 hrs
Pseudomonas aeruginosa [10] = assay: Antibacterial activity against IMP-4 producing multidrug-resistant Pseudomonas aeruginosa clinical isolate 19-17 assessed as inhibition of bacterial growth incubated for 18 to 20 hrs by two fold serial dilution assay; assay type: functional; conditions: time 18-20 hrs
Acinetobacter baumannii [11] = assay: Antibacterial activity against OXA-23 producing multidrug-resistant Acinetobacter baumannii clinical isolate 17-2 assessed as inhibition of bacterial growth incubated for 18 to 20 hrs by two fold serial dilution assay; assay type: functional; conditions: time 18-20 hrs
Acinetobacter baumannii [12] = assay: Antibacterial activity against OXA-23 producing multidrug-resistant Acinetobacter baumannii clinical isolate 17-3 assessed as inhibition of bacterial growth incubated for 18 to 20 hrs by two fold serial dilution assay; assay type: functional; conditions: time 18-20 hrs
Pseudomonas aeruginosa [13] = assay: Antibacterial activity against IMP-4 producing multidrug-resistant Pseudomonas aeruginosa clinical isolate 19-5 assessed as inhibition of bacterial growth incubated for 18 to 20 hrs by two fold serial dilution assay; assay type: functional; conditions: time 18-20 hrs
Pseudomonas aeruginosa [14] = assay: Antibacterial activity against IMP-4 producing multidrug-resistant Pseudomonas aeruginosa clinical isolate 19-1 assessed as inhibition of bacterial growth incubated for 18 to 20 hrs by two fold serial dilution assay; assay type: functional; conditions: time 18-20 hrs
Acinetobacter baumannii [15] = assay: Antibacterial activity against OXA-23 producing multidrug-resistant Acinetobacter baumannii clinical isolate 17-5 assessed as inhibition of bacterial growth incubated for 18 to 20 hrs by two fold serial dilution assay; assay type: functional; conditions: time 18-20 hrs
Acinetobacter baumannii [16] = assay: Antibacterial activity against OXA-23 producing multidrug-resistant Acinetobacter baumannii clinical isolate 17-6 assessed as inhibition of bacterial growth incubated for 18 to 20 hrs by two fold serial dilution assay; assay type: functional; conditions: time 18-20 hrs
Acinetobacter baumannii [17] = assay: Antibacterial activity against OXA-23 producing multidrug-resistant Acinetobacter baumannii clinical isolate 17-7 assessed as inhibition of bacterial growth incubated for 18 to 20 hrs by two fold serial dilution assay; assay type: functional; conditions: time 18-20 hrs
Acinetobacter baumannii [18] = assay: Antibacterial activity against OXA-23 producing multidrug-resistant Acinetobacter baumannii clinical isolate 17-8 assessed as inhibition of bacterial growth incubated for 18 to 20 hrs by two fold serial dilution assay; assay type: functional; conditions: time 18-20 hrs
Klebsiella pneumoniae [19] = assay: Antibacterial activity against KPC-2 producing multidrug-resistant Klebsiella pneumoniae clinical isolate 15-3 assessed as inhibition of bacterial growth incubated for 18 to 20 hrs by two fold serial dilution assay; assay type: functional; conditions: time 18-20 hrs
Escherichia coli [20] = assay: Antibacterial activity against Escherichia coli NCTC-13353 assessed as inhibition of bacterial growth incubated for 18 to 20 hrs in presence of CAMHB medium by two fold serial dilution assay; assay type: functional; conditions: time 18-20 hrs
Escherichia coli [21] = assay: Antibacterial activity against Escherichia coli ATCC-35218 assessed as inhibition of bacterial growth incubated for 18 to 20 hrs in presence of CAMHB medium by two fold serial dilution assay; assay type: functional; conditions: time 18-20 hrs
Klebsiella pneumoniae [22] = assay: Antibacterial activity against Klebsiella pneumoniae ATCC BAA-1898 assessed as inhibition of bacterial growth incubated for 18 to 20 hrs in presence of CAMHB medium by two fold serial dilution assay; assay type: functional; conditions: time 18-20 hrs
Escherichia coli [23] = assay: Antibacterial activity against Escherichia coli NCTC-13353 assessed as inhibition of bacterial growth incubated for 18 to 20 hrs in presence of iron-depleted CAMHB medium by two fold serial dilution assay; assay type: functional; conditions: time 18-20 hrs
Escherichia coli [24] = assay: Antibacterial activity against Escherichia coli ATCC-35218 assessed as inhibition of bacterial growth incubated for 18 to 20 hrs in presence of iron-depleted CAMHB medium by two fold serial dilution assay; assay type: functional; conditions: time 18-20 hrs
Klebsiella pneumoniae [25] = assay: Antibacterial activity against Klebsiella pneumoniae ATCC BAA-1898 assessed as inhibition of bacterial growth incubated for 18 to 20 hrs in presence of iron-depleted CAMHB medium by two fold serial dilution assay; assay type: functional; conditions: time 18-20 hrs
Escherichia coli [26] = assay: Antibacterial activity against Escherichia coli ATCC-35218 infected in ICR mouse assessed as inhibition of bacterial growth at iv after 1 and 5 hour of post-infection measured after 7 days; assay type: functional; conditions: ATCC-35218, 168 h, time 7 day
Acinetobacter baumannii [27] = assay: Antibacterial activity against multidrug-resistant Acinetobacter baumannii BM-2023-D2-010 infected in ICR mouse assessed as inhibition of bacterial growth at iv after 1 and 5 hour of post-infection measured after 7 days; assay type: functional; conditions: BM-2023-D2-010, 168 h, time 7 day
[28] = Plasma protein binding in mouse incubated for 35 mins by LC-MS/MS analysis; assay type: ADME, cell-free; conditions: read-out: PPB (converted)
hERG (KCNH2) = hERG (KCNH2) (Homo sapiens, UniProt Q12809); assay: Inhibition of hERG at 40 uM by whole cell Qpatch assay relative to control; assay type: toxicity
Chain of hERG (KCNH2) (Q12809 whole entry): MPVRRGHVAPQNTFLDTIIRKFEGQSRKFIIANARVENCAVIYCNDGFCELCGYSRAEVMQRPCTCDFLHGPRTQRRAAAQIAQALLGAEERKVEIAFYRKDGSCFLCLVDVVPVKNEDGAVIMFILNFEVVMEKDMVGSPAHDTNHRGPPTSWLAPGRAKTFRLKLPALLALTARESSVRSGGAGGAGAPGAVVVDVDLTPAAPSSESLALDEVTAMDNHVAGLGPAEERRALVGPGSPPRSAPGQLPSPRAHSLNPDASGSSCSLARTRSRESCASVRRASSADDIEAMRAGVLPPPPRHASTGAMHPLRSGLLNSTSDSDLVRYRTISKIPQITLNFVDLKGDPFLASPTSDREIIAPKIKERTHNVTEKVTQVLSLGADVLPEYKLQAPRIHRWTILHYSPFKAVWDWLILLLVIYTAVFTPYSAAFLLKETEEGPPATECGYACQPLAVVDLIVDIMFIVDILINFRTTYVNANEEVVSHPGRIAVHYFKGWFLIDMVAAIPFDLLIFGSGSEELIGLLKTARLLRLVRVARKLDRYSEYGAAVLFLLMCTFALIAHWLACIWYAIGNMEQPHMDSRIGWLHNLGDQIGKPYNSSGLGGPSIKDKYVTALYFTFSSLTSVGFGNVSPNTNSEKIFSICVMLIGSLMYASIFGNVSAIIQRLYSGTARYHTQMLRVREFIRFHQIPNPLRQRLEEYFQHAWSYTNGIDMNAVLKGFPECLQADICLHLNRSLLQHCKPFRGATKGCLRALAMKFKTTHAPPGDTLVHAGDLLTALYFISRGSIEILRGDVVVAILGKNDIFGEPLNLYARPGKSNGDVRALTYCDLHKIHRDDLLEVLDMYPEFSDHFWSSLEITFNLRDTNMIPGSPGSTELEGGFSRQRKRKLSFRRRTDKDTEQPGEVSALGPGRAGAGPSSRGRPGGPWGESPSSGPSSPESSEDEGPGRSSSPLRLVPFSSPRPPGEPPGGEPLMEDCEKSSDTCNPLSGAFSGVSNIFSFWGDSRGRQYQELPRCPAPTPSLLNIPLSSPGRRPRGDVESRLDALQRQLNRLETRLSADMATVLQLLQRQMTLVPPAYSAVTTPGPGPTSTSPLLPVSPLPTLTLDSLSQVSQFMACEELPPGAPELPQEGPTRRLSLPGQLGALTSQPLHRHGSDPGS

[29] = molecular target: Voltage-gated inwardly rectifying potassium channel KCNH2 (Homo sapiens, UniProt Q12809); assay: Inhibition of hERG by whole cell Qpatch assay; assay type: toxicity
Chain of Voltage-gated inwardly rectifying potassium channel KCNH2 (Q12809 whole entry): as above

Acinetobacter baumannii [30] = assay: Antibacterial activity against multidrug-resistant Acinetobacter baumannii BM-2023-D2-010 infected in ICR mouse assessed as inhibition of bacterial growth by measuring its effective dose at iv after 1 and 5 hour of post-infection measured after 7 days; assay type: functional; conditions: BM-2023-D2-010, 168 h, time 7 day
Pseudomonas aeruginosa [31] = assay: Antibacterial activity against Pseudomonas aeruginosa ATCC 27853 assessed as inhibition of bacterial growth incubated for 18 to 20 hrs by two fold serial dilution assay; assay type: functional; conditions: time 18-20 hrs
Acinetobacter baumannii [32] = assay: Antibacterial activity against OXA-23 producing multidrug-resistant Acinetobacter baumannii clinical isolate 15-1 assessed as inhibition of bacterial growth incubated for 18 to 20 hrs by two fold serial dilution assay; assay type: functional; conditions: time 18-20 hrs
Acinetobacter baumannii [33] = assay: Antibacterial activity against OXA-23 producing multidrug-resistant Acinetobacter baumannii clinical isolate 15-2 assessed as inhibition of bacterial growth incubated for 18 to 20 hrs by two fold serial dilution assay; assay type: functional; conditions: time 18-20 hrs
Acinetobacter baumannii [34] = assay: Antibacterial activity against OXA-23 producing multidrug-resistant Acinetobacter baumannii clinical isolate 15-3 assessed as inhibition of bacterial growth incubated for 18 to 20 hrs by two fold serial dilution assay; assay type: functional; conditions: time 18-20 hrs
Acinetobacter baumannii [35] = assay: Antibacterial activity against OXA-23 producing multidrug-resistant Acinetobacter baumannii clinical isolate 15-4 assessed as inhibition of bacterial growth incubated for 18 to 20 hrs by two fold serial dilution assay; assay type: functional; conditions: time 18-20 hrs
Acinetobacter baumannii [36] = assay: Antibacterial activity against OXA-23 producing multidrug-resistant Acinetobacter baumannii clinical isolate 15-5 assessed as inhibition of bacterial growth incubated for 18 to 20 hrs by two fold serial dilution assay; assay type: functional; conditions: time 18-20 hrs
Pseudomonas aeruginosa [37] = assay: Antibacterial activity against IMP-4 producing multidrug-resistant Pseudomonas aeruginosa clinical isolate 15-1 assessed as inhibition of bacterial growth incubated for 18 to 20 hrs by two fold serial dilution assay; assay type: functional; conditions: time 18-20 hrs
Pseudomonas aeruginosa [38] = assay: Antibacterial activity against IMP-4 producing multidrug-resistant Pseudomonas aeruginosa clinical isolate 15-4 assessed as inhibition of bacterial growth incubated for 18 to 20 hrs by two fold serial dilution assay; assay type: functional; conditions: time 18-20 hrs
Pseudomonas aeruginosa [39] = assay: Antibacterial activity against IMP-4 producing multidrug-resistant Pseudomonas aeruginosa clinical isolate 15-5 assessed as inhibition of bacterial growth incubated for 18 to 20 hrs by two fold serial dilution assay; assay type: functional; conditions: time 18-20 hrs

Structure (SMILES)	MIC (Escherichia coli [1]) [µg/mL]	MIC (Escherichia coli [2]) [µg/mL]	MIC (Escherichia coli [3]) [µg/mL]	MIC (Klebsiella pneumoniae [4]) [µg/mL]	MIC (Klebsiella pneumoniae [5]) [µg/mL]	MIC (Klebsiella pneumoniae [6]) [µg/mL]	MIC (Escherichia coli [7]) [µg/mL]	MIC (Pseudomonas aeruginosa [8]) [µg/mL]	MIC (Pseudomonas aeruginosa [9]) [µg/mL]	MIC (Pseudomonas aeruginosa [10]) [µg/mL]	MIC (Acinetobacter baumannii [11]) [µg/mL]	MIC (Acinetobacter baumannii [12]) [µg/mL]	MIC (Pseudomonas aeruginosa [13]) [µg/mL]	MIC (Pseudomonas aeruginosa [14]) [µg/mL]	MIC (Acinetobacter baumannii [15]) [µg/mL]	MIC (Acinetobacter baumannii [16]) [µg/mL]	MIC (Acinetobacter baumannii [17]) [µg/mL]	MIC (Acinetobacter baumannii [18]) [µg/mL]	MIC (Klebsiella pneumoniae [19]) [µg/mL]	MIC (Escherichia coli [20]) [µg/mL]	also measured
Nc1nc(/C(=N/O[C@@H](C(=O)O)C2CCC(F)(F)CC2)C(=O)N[C@@H]2C(=O)N3C(C(=O)O)=C(CSCCNC(=O)c4ccc(O)c(O)c4Cl)CS[C@H]23)cs1.O=C(O)C(F)(F)F	0.25	0.5	0.125	0.25	0.25	0.5	0.25	≤ 0.03	8	0.25	0.5	0.25	1	2	0.25	1	0.5	0.5	1	1	MIC (Escherichia coli [21]): 1 µg/mL; MIC (Klebsiella pneumoniae [22]): 4 µg/mL; MIC (Escherichia coli [23]): 0.25 µg/mL; MIC (Escherichia coli [24]): ≤ 0.03 µg/mL; MIC (Klebsiella pneumoniae [25]): 2 µg/mL; MIC (Escherichia coli [26]): 0.06 µg/mL; MIC (Acinetobacter baumannii [27]): 0.5 µg/mL; fraction unbound at 35 min [28]: 0.105; inhibition at 40 µM (hERG (KCNH2)): 6.67%; IC50 [29]: > 40000 nM; ED50 (Acinetobacter baumannii [30]): 7.3 mg/kg
CC(C)(O/N=C(\C(=O)N[C@@H]1C(=O)N2C(C(=O)[O-])=C(C[N+]3(CCNC(=O)c4ccc(O)c(O)c4Cl)CCCC3)CS[C@H]12)c1csc(N)n1)C(=O)O [CEFIDEROCOL]	0.125 (≈ 0.166 µM)	1 (≈ 1.33 µM)	2 (≈ 2.66 µM)	8 (≈ 10.6 µM)	4 (≈ 5.32 µM)	8 (≈ 10.6 µM)	0.06 (≈ 0.0798 µM)	1 (≈ 1.33 µM)	8 (≈ 10.6 µM)	0.5 (≈ 0.665 µM)	1 (≈ 1.33 µM)	1 (≈ 1.33 µM)	1 (≈ 1.33 µM)	2 (≈ 2.66 µM)	2 (≈ 2.66 µM)	1 (≈ 1.33 µM)	2 (≈ 2.66 µM)	1 (≈ 1.33 µM)	8 (≈ 10.6 µM)	0.5	MIC (Pseudomonas aeruginosa [31]): 2 µg/mL (≈ 2.66 µM); MIC (Acinetobacter baumannii [32]): 8 µg/mL (≈ 10.6 µM); MIC (Acinetobacter baumannii [33]): 2 µg/mL (≈ 2.66 µM); MIC (Acinetobacter baumannii [34]): 4 µg/mL (≈ 5.32 µM); MIC (Acinetobacter baumannii [35]): 4 µg/mL (≈ 5.32 µM); MIC (Acinetobacter baumannii [36]): 2 µg/mL (≈ 2.66 µM); MIC (Pseudomonas aeruginosa [37]): 4 µg/mL (≈ 5.32 µM); MIC (Pseudomonas aeruginosa [38]): 2 µg/mL (≈ 2.66 µM); MIC (Pseudomonas aeruginosa [39]): 2 µg/mL (≈ 2.66 µM); MIC (Escherichia coli [21]): 1 µg/mL; MIC (Klebsiella pneumoniae [22]): 8 µg/mL; MIC (Escherichia coli [23]): 0.5 µg/mL; MIC (Escherichia coli [24]): 0.06 µg/mL; MIC (Klebsiella pneumoniae [25]): 2 µg/mL; MIC (Escherichia coli [26]): 0.12 µg/mL (≈ 0.16 µM); MIC (Acinetobacter baumannii [27]): 0.25 µg/mL (≈ 0.332 µM); fraction unbound at 35 min [28]: 0.801; IC50 [29]: 42 nM; ED50 (Acinetobacter baumannii [30]): 7 mg/kg
